From ChEMBL document CHEMBL4396961, “Exploring the size of the lipophilic unit of the soluble epoxide hydrolase inhibitors” (Bioorg Med Chem, 2019)
Values after ≈ are worked out from the molar mass of the structure shown.

How the values were obtained:
[1] = physchem; details: 1% DMSO : 99% PBS buffer solution
[2] = Apparent permeability across basolateral to apical membrane in human Caco2 cells at 10 uM measured after 2 hrs by UPLC-MS/MS analysis; details: caco-2, 2 h
[3] = Apparent permeability across apical to basolateral membrane in human Caco2 cells at 10 uM measured after 2 hrs by UPLC-MS/MS analysis; details: caco-2, 2 h
[4] = molecular target: T1, Bifunctional epoxide hydrolase 2 (Homo sapiens, UniProt P34913); experiment: Inhibition of recombinant human liver soluble epoxide hydrolase expressed in baculovirus infected Sf21 cells using NEPC as substrate by fluorescence based assay; assay type: cell-based
T1 sequence (P34913 whole entry): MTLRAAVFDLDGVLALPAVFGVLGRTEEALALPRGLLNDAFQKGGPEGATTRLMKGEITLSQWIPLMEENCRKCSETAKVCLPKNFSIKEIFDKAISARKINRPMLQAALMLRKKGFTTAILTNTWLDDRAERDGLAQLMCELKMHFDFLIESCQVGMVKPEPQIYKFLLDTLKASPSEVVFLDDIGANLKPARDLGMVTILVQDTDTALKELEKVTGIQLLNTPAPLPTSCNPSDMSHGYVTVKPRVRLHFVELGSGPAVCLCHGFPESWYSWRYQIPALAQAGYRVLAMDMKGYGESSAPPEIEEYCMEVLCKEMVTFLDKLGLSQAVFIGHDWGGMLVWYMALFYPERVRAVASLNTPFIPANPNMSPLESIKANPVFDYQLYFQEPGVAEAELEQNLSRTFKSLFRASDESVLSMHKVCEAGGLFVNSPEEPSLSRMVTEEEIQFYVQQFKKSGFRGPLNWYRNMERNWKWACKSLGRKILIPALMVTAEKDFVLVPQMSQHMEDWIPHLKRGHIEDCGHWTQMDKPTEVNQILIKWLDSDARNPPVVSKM

[5] = Microsomal stability in human microsomes assessed as parent compound remaining in presence of NADP, glucose-6-phosphate and glucose-6-phosphate dehydrogenase measured after 60 mins by UPLC-MS/MS analysis
[6] = Efflux ratio of apparent permeability across basolateral to apical membrane over apical to basolateral membrane in human Caco2 cells at 10 uM measured after 2 hrs by UPLC-MS/MS analysis; details: caco-2, 2 h
[7] = molecular target: T2, Bifunctional epoxide hydrolase 2 (Mus musculus, UniProt P34914); experiment: Inhibition of murine soluble epoxide hydrolase expressed in baculovirus infected Sf21 cells using NEPC as substrate by fluorescence based assay; assay type: cell-based
T2 sequence (P34914 whole entry): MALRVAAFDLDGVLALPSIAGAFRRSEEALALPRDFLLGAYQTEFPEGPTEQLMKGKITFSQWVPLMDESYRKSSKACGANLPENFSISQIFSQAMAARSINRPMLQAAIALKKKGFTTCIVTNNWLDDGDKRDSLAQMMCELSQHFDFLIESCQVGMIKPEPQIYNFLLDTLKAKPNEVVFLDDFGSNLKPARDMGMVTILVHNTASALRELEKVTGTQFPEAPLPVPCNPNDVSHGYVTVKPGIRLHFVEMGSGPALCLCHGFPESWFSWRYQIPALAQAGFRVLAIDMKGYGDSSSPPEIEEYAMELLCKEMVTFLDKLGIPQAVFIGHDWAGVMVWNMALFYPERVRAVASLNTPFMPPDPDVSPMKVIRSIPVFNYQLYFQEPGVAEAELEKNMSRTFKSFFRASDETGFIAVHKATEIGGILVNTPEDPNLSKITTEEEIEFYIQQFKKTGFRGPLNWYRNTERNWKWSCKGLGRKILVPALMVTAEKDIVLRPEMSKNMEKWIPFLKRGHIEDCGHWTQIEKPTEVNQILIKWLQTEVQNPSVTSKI

Work on `O=C(Nc1ccc(F)c(F)c1F)NC12CC3CC(CC(C3)C1)C2` yielded a solubility kinetic at 2 h [1] of 57 µM (≈ 18.5 µg/mL), a Papp [2] of 0.18 ×10⁻⁶ cm/s and a Papp [3] of 1.18 ×10⁻⁶ cm/s.
`CC(=O)N1CCC(NC(=O)NC23CC4CC(CC2C4)C3)CC1` gave an IC50 [4] of 21.7 nM and a remaining at 1 h [5] of 88.7%.
With `CC12CC3CC1(C)CC3(NC(=O)Nc1ccc(F)c(F)c1F)C2` the solubility kinetic at 2 h [1] was 66 µM (≈ 21.4 µg/mL), the IC50 [4] was 0.5 nM and the remaining at 1 h [5] was 30%.
With `CC12CC3CC1(C)CC3(CNC(=O)Nc1ccc(F)c(F)c1F)C2` the IC50 [4] was 0.4 nM.
For `CC(=O)N1CCC(NC(=O)NC23CC4(C)CC2CC4(C)C3)CC1`, the Ratio [6] was 1.1, the IC50 [7] was 3.3 nM and the solubility kinetic at 2 h [1] was over 100 µM. The Papp [2] was 18.02 ×10⁻⁶ cm/s, the IC50 [4] was 6.5 nM and the Papp [3] was 15.92 ×10⁻⁶ cm/s. For the same compound, the remaining at 1 h [5] was 59.3%.
Compound `CC(=O)N1CCC(NC(=O)NC2C3CC4C5CC6CC4C2C(C6)C5C3)CC1` (stereo unspecified) has a Ratio [6] of 1, an IC50 [7] of 5 nM and a solubility kinetic at 2 h [1] of 86 µM (≈ 32 µg/mL). For the same compound, the Papp [2] was 14.69 ×10⁻⁶ cm/s, the IC50 [4] was 3.4 nM and the Papp [3] was 15.62 ×10⁻⁶ cm/s. It also gave a remaining at 1 h [5] of 0%.
With `O=C(NC1C2CC3C4CC5CC3C1C(C5)C4C2)N[C@H]1CC[C@H](Oc2ccc(C(=O)O)cc2)CC1` (stereo partly specified) the Ratio [6] was 22.2, the solubility kinetic at 2 h [1] was 7 µM (≈ 3.25 µg/mL) and the Papp [2] was 6.75 ×10⁻⁶ cm/s. For the same compound, the IC50 [4] was 0.5 nM, the Papp [3] was 0.31 ×10⁻⁶ cm/s and the remaining at 1 h [5] was 14.6%.
With `CC(=O)N1CCC(NC(=O)NC23CC4CC(CC(C4)C2)C3)CC1` [AR9281] the solubility kinetic at 2 h [1] was over 100 µM.
Compound `C[C@]12CC[C@H]3[C@@H](CCC4=CC(=O)CC[C@@]43C)[C@@H]1CC[C@@H]2O` [TESTOSTERONE] has a remaining at 1 h [5] of 22.4%.
